Source: patent publication US7329757B2 (Bayer Aktiengesellschaft, priority 2000, dated 2008)

Key:
[1] = test system: weeds; test: Post-emergence test (Example B), damage to weeds; format: in vivo; details: test plants of 5-15 cm sprayed, rated after three weeks
Description: (§1) To produce a suitable preparation of active compound, 1 part by weight of active compound is mixed with the stated amount of solvent, the stated amount of emulsifier is added and the concentrate is diluted with water to the desired concentration.
Test plants of a height of 5-15 cm are sprayed with the preparation of active compound such that the particular amounts of active compound desired are applied per unit area. The concentration of the spray liquor is chosen so that the particular amounts of active compound desired are applied in 1000 l of water/ha.
After three weeks, the degree of damage to the plants is rated in % damage in comparison to the development of the untreated controls.

[2] = test system: weeds; test: Pre-emergence test (Example A), damage to weeds; format: in vivo; details: soil sprayed 24 hours after sowing, rated after three weeks
Description: as §1
Seeds of the test plants are sown in normal soil. After 24 hours, the soil is sprayed with the preparation of active compound such that the particular amount of active compound desired is applied per unit area. The concentration of active compound in the spray liquors is chosen so that the particular amount of active compound desired is applied in 1000 litres of water per hectare.
After three weeks, the degree of damage to the plants is rated in % damage in comparison to the development of the untreated control.

[3] = logP determination by HPLC on reversed-phase column (C 18), EEC Directive 79/831 Annex V.A8; format: physicochemical
Description: The calibration was carried out using unbranched alkan-2-ones (having 3 to 16 carbon atoms) with known logP values (determination of the logP values by the retention times using linear interpolation between two successive alkanones).

Compound | melting point | activity against weeds (degree of damage) [2] | also measured
Cc1ccc(S(=O)(=O)/N=c2\ccc(C)cn2-c2cccc(C(F)(F)F)c2)cc1 [Example 7, 4-methyl-N-[5-methyl-1-(3-trifluoromethylphenyl)-2(1H)-pyridinylidene]-benzenesulphonamide] | 174 °C |  | 
Cc1ccc(=NS(=O)(=O)C(F)(F)F)n(-c2cccc(C(F)(F)F)c2)c1 [Example 5, N-[5-methyl-1-(3-trifluoromethyl-phenyl)-2(1H)-pyridinylidene]-trifluoromethanesulphonamide] | 206 °C |  | 
CNC(=O)/N=c1\ccc(C)cn1-c1cccc(C(F)(F)F)c1 [Example 4, N-methyl-N′-[5-methyl-1-(3-trifluoromethylphenyl)-2(1H)-pyridinylidene]-urea] | 114 °C |  | 
5-methyl-1-(2,3-difluoromethylenedioxy-phenyl)-2(1H)-pyridinone [IX-28] |  |  | logP [3]: 3.95
Cc1cc/c(=N\C2CC2)n(-c2cccc(C(F)(F)F)c2)c1 [Example 8, N-cyclopropyl-5-methyl-1-(3-trifluoromethylphenyl)-2(1H)-pyridineimine] |  |  | chromatographic logP ([3]; reversed-phase HPLC column (C 18), HPLC, range (acidic/neutral) not labelled): 1.51
O=c1ccc(C(F)(F)F)cn1-c1cccc(C(F)(F)F)c1 [IX-35, 5-trifluoromethyl-1-(3-trifluoromethyl-phenyl)-2(1H)-pyridinone] |  |  | chromatographic logP ([3]; reversed-phase HPLC column (C 18); labelled a): acidic range, 0.1% aqueous phosphoric acid/acetonitrile gradient, 43° C.): 2.78
Cc1cc/c(=N\c2nnc(C(F)(F)F)s2)n(-c2cccc(C(F)(F)F)c2)c1 [Example 6, N-(5-trifluoromethyl-1,3,4-thiadiazol-2-yl)-5-methyl-1-(3-trifluoromethyl-phenyl)-2(1H)-pyridinimine] | 179 °C |  | 
Cc1cc/c(=N\C#N)n(-c2cccc(C(F)(F)F)c2)c1 [Example 3, 5-methyl-1-(3-trifluoromethyl-phenyl)-2(1H)-pyridinylidenecyanamide] | 165 °C | strong activity against weeds | activity against weeds (degree of damage) [1]: strong activity against weeds
Cc1ccc(=NC(=O)OC(C)C)n(-c2cccc(C(F)(F)F)c2)c1 [Example 2] |  | strong activity against weeds | chromatographic logP ([3]; HPLC, range (acidic/neutral) not labelled): 1.59
Cc1cc/c(=N\C(=O)C(F)(F)F)n(-c2cccc(C(F)(F)F)c2)c1 [Example 1, 2,2,2-trifluoro-N-[5-methyl-1-(3-trifluoromethylphenyl)-2(1H)-pyridinylidene]-acetamide] | 115 °C | strong activity against weeds | activity against weeds (degree of damage) [1]: strong activity against weeds

Further lines, with some results ahead:

melting point | Compound | activity against weeds (degree of damage) [2] | also measured
95 °C | Cc1ccc(=O)n(-c2cccc(C(F)(F)F)c2)c1 [IX-1, 5-methyl-1-(3-trifluoromethyl-phenyl)-2(1H)-pyridinone] | strong activity against weeds | activity against weeds (degree of damage) [1]: strong activity against weeds
122 °C | Cc1cccn(-c2cccc(C(F)(F)F)c2)c1=O [IX-34, 3-methyl-1-(3-trifluoromethyl-phenyl)-2(1H)-pyridinone] |  | 
